In patent US5994334A, “Androgen synthesis inhibitors” (priority 1997, dated 1999):

How the values were obtained:
[1] = tested on: breast cancers in postmenopausal patients; details: human, in vivo; cited from earlier work
[2] = tested on: LNCaP human prostatic cancer cell line; assay: Androgen-dependent growth of LNCaP cells; details: for stimulation of LNCaP cell proliferation (in words): 0.1 nM testosterone, hydroxyflutamide 0.3-1 μM
Method: The ability of various inhibitors to reverse the stimulatory effect of testosterone on the growth of the LNCaP human prostatic cancer cell line was tested by comparing cell number in wells treated for 9 days with either drug vehicle only (control), 0.1 nM testosterone only, or 0.1 nM testosterone with inhibitor at 0.3, 1, 2.5, or 5 μM.

mutant androgen receptor = details: cited from earlier work
[3] = tested on: patients with prostatic cancer; details: combined with GnRH or orchidectomy vs GnRH agonist or orchidectomy alone; cited from earlier work
[4] = tested on: human prostatic tissue (BPH or prostate cancer); assay: Prostate tissue in histoculture, DNA synthesis ([3H]-thymidine uptake); details: inhibitor 1 μM; testosterone 1 μM; FIG. 1
Method: We recently developed a histoculture method to evaluate the growth inhibiting properties of the compounds on human prostatic tissue. […] The tissue samples were then incubated for 3 days in fresh medium/treatment containing 2 μCi/ml [^3 H]-thymidine. Tissue was then digested and DNA extracted. For each sample, [^3 H]-thymidine uptake was normalized to DNA content. […] This finding is consistent with the compound acting as an antiandrogen. None of the compounds produced an independent effect on DNA synthesis in the absence of added androgens.

[5] = molecular target: human androgen receptor (AR) (Homo sapiens, UniProt P10275); assay: Androgen receptor-mediated gene transcription, wild-type AR (luciferase, CV1 cells); type: cell-based; details: against DHT stimulation
Sequence of human androgen receptor (AR) (P10275 whole entry): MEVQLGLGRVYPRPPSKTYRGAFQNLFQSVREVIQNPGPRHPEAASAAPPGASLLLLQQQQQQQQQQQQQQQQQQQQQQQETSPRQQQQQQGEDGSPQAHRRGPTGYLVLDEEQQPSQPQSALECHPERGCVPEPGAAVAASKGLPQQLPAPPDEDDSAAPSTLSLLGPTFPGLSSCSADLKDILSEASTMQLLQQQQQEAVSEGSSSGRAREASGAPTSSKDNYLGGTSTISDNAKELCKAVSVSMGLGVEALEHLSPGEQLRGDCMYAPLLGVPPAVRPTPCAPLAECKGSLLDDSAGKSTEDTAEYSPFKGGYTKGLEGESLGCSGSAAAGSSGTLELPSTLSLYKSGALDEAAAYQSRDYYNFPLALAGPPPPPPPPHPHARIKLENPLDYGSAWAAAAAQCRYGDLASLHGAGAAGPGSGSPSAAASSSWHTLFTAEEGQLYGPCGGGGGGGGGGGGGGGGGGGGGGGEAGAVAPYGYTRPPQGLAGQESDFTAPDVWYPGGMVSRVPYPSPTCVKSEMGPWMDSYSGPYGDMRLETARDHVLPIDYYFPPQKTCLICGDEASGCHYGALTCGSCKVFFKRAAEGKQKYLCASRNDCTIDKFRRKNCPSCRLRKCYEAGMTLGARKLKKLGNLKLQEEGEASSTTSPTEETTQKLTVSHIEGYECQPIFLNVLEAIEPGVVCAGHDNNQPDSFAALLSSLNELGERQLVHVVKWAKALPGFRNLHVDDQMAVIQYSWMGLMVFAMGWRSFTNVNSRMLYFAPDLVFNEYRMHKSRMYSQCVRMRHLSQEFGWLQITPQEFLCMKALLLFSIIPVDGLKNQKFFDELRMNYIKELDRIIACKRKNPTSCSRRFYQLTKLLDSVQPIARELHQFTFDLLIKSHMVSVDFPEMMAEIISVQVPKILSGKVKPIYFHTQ

normal male rats = assay: In vivo studies in normal male rats: hormone levels; design: species or system rat
Excerpt: (§1) Studies in normal male rats have been carried out with 4-pregnen-3-one-20β-carboxaldehyde (I-16) (Li et al., 1992) and with its 20-carboxaldoxime (I-23)(Li et al., 1995).

[6] = molecular target: T1, Human Prostatic 5α-Reductase (Homo sapiens, UniProt P31213); assay: Inhibition of human prostatic 5α-reductase (prostatic microsomes, [3H]testosterone)
T1 sequence (P31213 1-254): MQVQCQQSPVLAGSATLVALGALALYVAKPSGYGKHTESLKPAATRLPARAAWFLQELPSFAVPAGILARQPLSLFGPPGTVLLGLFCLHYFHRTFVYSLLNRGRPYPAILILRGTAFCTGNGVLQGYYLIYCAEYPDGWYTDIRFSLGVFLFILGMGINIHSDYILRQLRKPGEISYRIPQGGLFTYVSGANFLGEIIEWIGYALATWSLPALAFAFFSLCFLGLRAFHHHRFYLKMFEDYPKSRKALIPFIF

[7] = tested on: rat 17α-hydroxylase/C17,20-lyase; assay: Inhibition of rat 17α-hydroxylase/C17,20-lyase; type: biochemical
Excerpt: as §1

[8] = tested on: mutant AR which is expressed in LNCaP cells; assay: Androgen receptor-mediated gene transcription, mutant AR of LNCaP cells (luciferase, CV1 cells); type: cell-based, human
[9] = molecular target: T1, Human Prostatic 5α-Reductase; assay: biochemical
rat 17α-hydroxylase = rat 17α-hydroxylase (Rattus norvegicus, UniProt P11715); assay: Inhibition kinetics of rat 17α-hydroxylase, progesterone substrate; type: biochemical
Sequence of rat 17α-hydroxylase (P11715 whole entry): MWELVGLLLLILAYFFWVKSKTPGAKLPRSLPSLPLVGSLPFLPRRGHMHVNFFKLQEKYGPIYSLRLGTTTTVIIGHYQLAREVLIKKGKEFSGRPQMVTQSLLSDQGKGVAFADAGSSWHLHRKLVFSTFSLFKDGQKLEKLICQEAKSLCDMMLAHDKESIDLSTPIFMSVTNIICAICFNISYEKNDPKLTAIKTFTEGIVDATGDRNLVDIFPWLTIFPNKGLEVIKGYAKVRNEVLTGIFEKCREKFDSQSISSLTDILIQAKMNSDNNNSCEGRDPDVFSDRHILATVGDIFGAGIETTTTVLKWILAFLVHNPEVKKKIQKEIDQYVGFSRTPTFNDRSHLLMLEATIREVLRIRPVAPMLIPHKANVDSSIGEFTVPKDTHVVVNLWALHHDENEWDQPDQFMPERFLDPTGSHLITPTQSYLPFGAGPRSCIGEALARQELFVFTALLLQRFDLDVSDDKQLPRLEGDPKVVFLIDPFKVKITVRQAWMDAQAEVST
Excerpt: as §1

rat C17,20-lyase = rat C17,20-lyase (Rattus norvegicus, UniProt P11715); assay: Inhibition kinetics of rat C17,20-lyase, 17α-hydroxyprogesterone substrate; type: biochemical; details: 17α-hydroxyprogesterone as substrate; vs. Km 76 nM
Sequence of rat C17,20-lyase (P11715 whole entry): as above
Excerpt: as §1

[10] = 50 mg/kg/day sc, 21 days, vs control
[11] = 50 mg/kg/day sc, 21 days, vs vehicle

C[C@]12CCC(=O)C(O)=C1CC[C@@H]1[C@@H]2CC[C@]2(C)C(=O)CC[C@@H]12 [Compound 4-OHA, 4-hydroxyandrostene-3,17-dione]
side effects (in words) [1]: without significant side effects

CC(C)(O)C(=O)Nc1ccc([N+](=O)[O-])c(C(F)(F)F)c1 [hydroxyflutamide, reference compound]
stimulation of LNCaP cell proliferation (in words) [2]: stimulated cell proliferation
effect on mutant AR / prostatic cell growth (in words) (mutant androgen receptor): agonist activity for the mutant androgen receptor of LNCaP cells

CC(C)C(=O)Nc1ccc([N+](=O)[O-])c(C(F)(F)F)c1 [flutamide, reference compound]
progression-free survival (in words) [3]: increased progression-free survival time
reversal of testosterone-stimulated DNA synthesis (in words), 1 μM [4]: almost complete reversal

C[C@H](C=NO)[C@H]1CC[C@H]2[C@@H]3CCC4=CC(=O)CC[C@]4(C)[C@H]3CC[C@]12C [Compound I-23, 3-oxo-4-pregnene-20β-carboxaldehyde oxime]
antagonism of wild-type AR (in words) [5]: dose-dependent antagonism
decrease of prostatic DHT (normal male rats; [10]): 44%
decrease of prostatic testosterone (normal male rats; [10]): 60%
serum LH concentration (in words) (normal male rats; [10]): unchanged
reduction of serum testosterone (normal male rats; [11]): 65%
reduction of testicular testosterone (normal male rats; [11]): 59%
reduction of testosterone and DHT levels in serum, testicular and prostatic tissues (in words) (normal male rats; rat): significantly reducing testosterone and DHT levels
IC50 ([6]; IC50 5α-reductase, Table 2): 106 nM
inhibition of 5α-reductase (in words) ([6]; NI = no inhibition): potent inhibition of 5α-reductase
inhibition at 0.01 µM ([6]; read-out: % Inhibition of 5α-reductase, [I] 10 nM): 14.7%
inhibition at 0.1 µM ([6]; read-out: % Inhibition of 5α-reductase, [I] 100 nM): 85.8%
inhibition of rat 17α-hydroxylase/C17,20-lyase (in words) [7]: inhibit rat 17α-hydroxylase/C17,20 -lyase
reversal of DHT-stimulated LNCaP growth (in words) ([2]; 0.03 nM DHT): stimulation of growth above the level produced by DHT
stimulation of LNCaP cell proliferation (in words) [2]: stimulated cell proliferation
agonism/antagonism at mutant AR of LNCaP cells (in words) [8]: agonists
Ki [9]: 1.4 nM
Ki (rat 17α-hydroxylase): 74 nM
Ki (rat C17,20-lyase): 18 nM
